Results on 22 compounds are retold here after patent US9682954B2, “Phenanthridine derivatives, preparation methods and uses thereof” (Kunming Institute of Botany, The Chinese Academy of Sciences, priority 2013, dated 2017).

Data set [1] has as its system HCV. Kind of data set: microbe, parasite or virus in culture. The class given is cell-based, Hepatitis C Virus (HCV). The note with it: Hepatitis C virus, Huh7.5, 72 h, Huh7.5 cells infected with HCV, intracellular HCV RNA by qRT-PCR, Reed-Muench method. The method, then:
(2) Anti-HCV Activity of the Compound in Cells:
The total RNA was extracted from the cells. The intracellular content of HCV and RNA of internal control gene GAPDH were determined by real-time fluorescence qRT-PCR.
(In general: In qPCR the cycle at which signal appears reflects the starting amount.)

Data set [2] can be described thus: in vitro. The conditions noted are these: human. The method, then:
(1) Toxicity Experiment of the Compound on Huh7.5:
100 μL of Huh7.5 cells (1×10^5/ml) was inoculated in 96-wells plates and incubated in an incubator at 37° C. under 5% of CO2 and saturated humidity for 24 hrs. Then different concentration of the compound of the present invention and positive control (VX-950, telaprevir) were added respectively and incubated for a further 72 hrs. 10 μL of MTT (5 mg/mL) was added per well and incubated for another 4 hrs. After the cells were lysed with DMSO, OD570-630 […] was determined on ELIASA. In comparison with OD of the control group, inhibitory rate of each concentration on cell toxicity was calculated, and half toxic concentration of the compound was calculated with Reed-Muench method.

The term EC50 denotes the concentration at which the effect is half-maximal. Low readings indicate a more potent agent, high ones a less potent agent. `C=Cc1cccc2c1N(C)Cc1cc(OC(=O)c3ccccc3)c(OC(=O)c3ccccc3)cc1-2` [Compound 11m, 4-ethenyl-5-methyl-8,9-dibenzoyloxy-5,6-dihydro-phenanthridine] showed a concentration giving a half-maximal response (EC50) in data set [1] of 1.03 ± 0.07 µM. Moreover, the CC50 at 72 h in data set [2] was greater than 100 µM.
On to `C=CCOc1cc2c(cc1OCC=C)-c1cccc(CC)c1N(C)C2` [Compound 10c, 4-ethyl-5-methyl-8,9-diallyloxy-5,6-dihydro-phenanthridine], for which the EC50 in data set [1] came to 16.3 ± 10.1 µM. This compound also came in with a CC50 at 72 h in data set [2] greater than 100 µM.
Regarding `C=Cc1cccc2c1N(C)Cc1cc(OC(=O)CC(C)C)c(OC(=O)CC(C)C)cc1-2` [Compound 11l, 4-ethenyl-5-methyl-8,9-diisovaleroxy-5,6-dihydro-phenanthridine], the response in data set [1] was half-maximal at 3.27 ± 1.26 µM (EC50). This compound returned a CC50 at 72 h in data set [2] greater than 100 µM.
Taken in the same sequence, the figures for `C=Cc1cccc2c1N(C)Cc1cc(OC(=O)C(C)C)c(OC(=O)C(C)C)cc1-2` [Compound 11j, 4-ethenyl-5-methyl-8,9-diisobutyryloxy-5,6-dihydro-phenanthridine] were 1.83 ± 0.17 µM and greater than 100 µM.
For `CCc1cccc2c1N(C)Cc1cc(OC(=O)c3ccccc3)c(OC(=O)c3ccccc3)cc1-2` [Compound 10o, 4-ethyl-5-methyl-8,9-dibenzoyloxy-5,6-dihydro-phenanthridine] the same measures were 11 ± 2.23 µM and 91.5 ± 4.19 µM.
Compound `CCc1cccc2c1N(C)Cc1cc(OCC3CCC3)c(OCC3CCC3)cc1-2` [Compound 10e, 4-ethyl-5-methyl-8,9-bis-cyclobutylmethoxy-5,6-dihydro-phenanthridine] registered an EC50 in data set [1] of 9.5 ± 2.71 µM. Further, in data set [2], the CC50 at 72 h is greater than 100 µM.
Taken in the same sequence, the figures for `C#CCOc1cc2c(cc1OCC#C)-c1cccc(C=C)c1N(C)C2` [Compound 11b, 4-ethenyl-5-methyl-8,9-di(prop-2-ynyloxy)-5,6-dihydro-phenanthridine] were 4.2 ± 1.72 µM and greater than 100 µM.
Taken in the same sequence, the figures for `C#CCOc1cc2c(cc1OCC#C)-c1cccc(CC)c1N(C)C2` [Compound 10d, 4-ethyl-5-methyl-8,9-diprop-2-ynyloxy-5,6-dihydro-phenanthridine] were 0.83 ± 0.35 µM and 58.3 ± 2.1 µM.
Turning to `CCc1cccc2c1N(C)Cc1cc(OC(=O)C(C)C)c(OC(=O)C(C)C)cc1-2` [Compound 10l, 4-ethyl-5-methyl-8,9-diisobutyryloxy-5,6-dihydro-phenanthridine], in data set [1], the EC50 is 13.9 ± 11.4 µM. This compound showed a CC50 at 72 h in data set [2] greater than 100 µM.
For `C=Cc1cccc2c1N(C)Cc1cc(OCC3CCCCC3)c(OCC3CCCCC3)cc1-2` [Compound 11d, 4-ethenyl-5-methyl-8,9-bis-cyclohexylmethoxy-5,6-dihydro-phenanthridine], the concentration for a half-maximal effect (EC50) in data set [1] is greater than 33.3 µM. In data set [2], this compound had a CC50 at 72 h greater than 100 µM.
Take `C=CCOc1cc2c(cc1OCC=C)-c1cccc(C=C)c1N(C)C2` [Compound 11a, 4-ethenyl-5-methyl-8,9-diallyloxy-5,6-dihydro-phenanthridine]: in data set [1], it took 28.8 ± 5.38 µM to reach a half-maximal effect (EC50). Moreover, the CC50 at 72 h in data set [2] is greater than 100 µM.
For `CCc1cccc2c1N(C)Cc1cc(OC(C)=O)c(OC(C)=O)cc1-2` [Compound 10j, 4-ethyl-5-methyl-8,9-diacetoxy-5,6-dihydro-phenanthridine], the response in data set [1] was half-maximal at 0.23 ± 0.08 µM (EC50). Also, the CC50 at 72 h in data set [2] worked out at 90.1 ± 7.4 µM.
On to `CCc1cccc2c1N(C)Cc1cc(OCC3CCCCC3)c(OCC3CCCCC3)cc1-2` [Compound 10f, 4-ethyl-5-methyl-8,9-bis-cyclohexylmethoxy-5,6-dihydro-phenanthridine], for which the midpoint of the response in data set [1], the EC50, lay at 10.8 ± 2.86 µM. This compound returned a CC50 at 72 h in data set [2] greater than 100 µM.
Taken in the same sequence, the figures for `C=Cc1cccc2c1N(C)Cc1cc(OCC3CCC3)c(OCC3CCC3)cc1-2` [Compound 11c, 4-ethenyl-5-methyl-8,9-bis-cyclobutylmethoxy-5,6-dihydro-phenanthridine] were 11.3 ± 1.66 µM and greater than 100 µM.
In the case of `CCc1cccc2c1N(C)Cc1cc(O)c(O)cc1-2` [Compound 10, 4-ethyl-5-methyl-5,6-dihydro-phenanthridine-8,9-diol], the EC50 in data set [1] is greater than 11.1 µM. For the same compound, the CC50 at 72 h in data set [2] was found to be 61.3 ± 8.4 µM.
For `C=Cc1cccc2c1N(C)Cc1cc(OCc3ccccc3)c(OCc3ccccc3)cc1-2` [Compound 11e, 4-ethenyl-5-methyl-8,9-dibenzyloxy-5,6-dihydro-phenanthridine] the same measures were 13.4 ± 0.98 µM and greater than 100 µM.
In the case of `CCc1cccc2c1N(C)Cc1cc(OC)c(OC)cc1-2` [Compound 10a, 4-ethyl-5-methyl-8,9-dimethoxy-5,6-dihydro-phenanthridine], the EC50 in data set [1] was less than 0.41 µM. In data set [2], the CC50 at 72 h is greater than 100 µM.
For `C=Cc1cccc2c1N(C)Cc1cc(O)c(O)cc1-2` [Compound 11, 4-ethenyl-5-methyl-5,6-dihydrophenanthridine-8,9-diol] the same measures were 8.37 ± 2.39 µM and greater than 100 µM.
The compound `CCc1cccc2c1N(C)Cc1cc(OCc3ccccc3)c(OCc3ccccc3)cc1-2` [Compound 10g, 4-ethyl-5-methyl-8,9-dibenzyloxy-5,6-dihydro-phenanthridine] returned an EC50 in data set [1] of 1.25 ± 0.56 µM. In addition, the CC50 at 72 h in data set [2] turned out to be 30.2 ± 0.6 µM.
As to `C=Cc1cccc2c1N(C)Cc1cc(OC(=O)CC)c(OC(=O)CC)cc1-2` [Compound 11i, 4-ethenyl-5-methyl-8,9-dipropionyloxy-5,6-dihydro-phenanthridine], the midpoint of the response in data set [1], the EC50, lay at 1.02 ± 0.16 µM. Also, the CC50 at 72 h in data set [2] was greater than 100 µM.
In turn, `C=Cc1cccc2c1N(C)Cc1cc(OC(C)=O)c(OC(C)=O)cc1-2` [Compound 11h, 4-ethenyl-5-methyl-8,9-diacetoxy-5,6-dihydro-phenanthridine] showed a half-maximal effective concentration (EC50) in data set [1] of 1.63 ± 0.91 µM. In data set [2], this compound displayed a CC50 at 72 h greater than 100 µM.
`CCc1cccc2c1N(C)Cc1cc(OC(=O)CC(C)C)c(OC(=O)CC(C)C)cc1-2` [Compound 10n, 4-ethyl-5-methyl-8,9-diisovaleroxy-5,6-dihydro-phenanthridine] yielded a half-maximal effective concentration (EC50) in data set [1] of 1.43 ± 0.45 µM. In data set [2], the CC50 at 72 h stood at 50.3 ± 1 µM.
